From PubChem BioAssay (NCI)
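Growth conditions: 96-well plates. Treatment: test compound, 48 hours, 5 concentrations. Analysis: linear interpolation between bracketing concentrations; unreached endpoints set to highest concentration. GI50: concentration for 50% inhibition of growth. At the TGI there is no net growth.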

Legend:
Assay in all cases: growth of human tumour cells (NCI), 48 h
[1] = test system: SNB-75 CNS
[2] = test system: M14 melanoma
[3] = test system: HL-60(TB) leukemia
[4] = test system: RXF 393 renal
[5] = test system: UACC-257 melanoma
[6] = test system: COLO 205 colon
[7] = test system: SK-MEL-5 melanoma
[8] = test system: SNB-19 CNS
[9] = test system: NCI-H522 lung
[10] = test system: SK-MEL-2 melanoma

SMILES | TGI [1] [µM] | TGI [2] [µM] | TGI [3] [µM] | TGI [4] [µM] | TGI [5] [µM] | TGI [6] [µM] | TGI [7] [µM] | TGI [8] [µM] | TGI [9] [µM] | TGI [10] [µM] | GI50 [1] [µM] | GI50 [2] [µM] | GI50 [3] [µM] | GI50 [5] [µM] | GI50 [9] [µM] | GI50 [10] [µM] | GI50 [6] [µM] | GI50 [7] [µM] | GI50 [8] [µM] | GI50 [4] [µM]
Cc1cc(NC(=S)SCc2ccc(F)cc2)c([N+](=O)[O-])cc1C | > 100 | > 100 | 45.4 | 82.9 | 53.6 | 37.2 | 26 | 77.1 |  |  |  |  |  |  |  |  |  |  |  | 
COC(=O)C(Cc1nc2ccccc2[nH]c1=O)C(NO)C(=O)Nc1c(Cl)cc([N+](=O)[O-])cc1Cl (stereo not given) |  | > 100 |  | 50.2 | > 100 | > 100 | 46.4 | > 100 | 31.3 | 82.2 |  |  |  |  |  |  |  |  |  | 
COc1ccc(C(=O)c2cc(C)c(OC)c(C)c2)cc1OC(=O)CCl | > 100 | 22.8 | < 0.01 |  | > 100 | 18.8 | 0.459 | > 100 | < 0.01 | > 100 | < 0.01 | < 0.01 | < 0.01 | 19 | < 0.01 | < 0.01 | 0.751 | < 0.01 | < 0.01 | 
Nc1ccccc1/C(O)=C1/CCOC1=O | > 100 | > 100 | > 100 |  | > 100 | > 100 |  | > 100 | > 100 | > 100 |  |  |  |  |  |  |  |  |  | 
COc1c(C(=O)/C=C/c2ccccc2)c(O)cc2occc12 | 15.1 | 25.7 |  | 15.6 | 19.7 | 29.9 | 16.3 | 20.4 | 15.7 | 25.2 | 2.42 | 8.89 |  | 7.01 | 4.29 | 12.4 | 15.7 | 3.87 | 7.33 | 3.56
